Among the data in ChEMBL document CHEMBL3507680, “University of Dundee, Gates Library screen for HepG2 cell viability” are cytotoxicity values, retold here.

The structures appear in SMILES notation.

This data set in a line: Human HepG2 cell viability assay in 384 well format. The format is toxicity, cell-based. Also on record: dose 125 nL, time 70.5 hour; concentration not given beside the values. Conditions: HepG2 cells, read-out: Inhibition.
`CN(Cc1ccco1)[C@@H]1CN(C(=O)c2ccnnc2)[C@@H]2CCCO[C@H]12`: the cytotoxicity at 70.5 h was found to be 1.48%.
For the compound `Cc1cc(C(=O)N2CCC3(CC2)c2nc[nH]c2CCN3CC(C)C)no1`, the cytotoxicity at 70.5 h was found to be 7%.
Consider `Cc1cc(NC(=O)CN2CCCC2c2noc(C(C)C)n2)n(C)n1` (stereo not drawn), for which the cytotoxicity at 70.5 h was -7.61%.
Consider `Cc1ccc(CC(=O)N2CCCCC2c2nc(C)cs2)cn1` (stereo not drawn), for which the cytotoxicity at 70.5 h is -14.4%.
For the compound `Cc1noc(C)c1CN(C)c1ncnc2ccccc12`, the cytotoxicity at 70.5 h is -6.84%.
For `COCCN1C(=O)[C@H]2CC[C@@H]1CN(c1nccc(C3CCCC3)n1)C2`, the cytotoxicity at 70.5 h is -4.32%.
The same measure for `O=C(NCCCN1CCc2ccccc2C1)c1ccccc1Cl`: -7.27%; for `CN1CCC(c2cccc(Cc3ccc(F)cc3)n2)CC1`: -13.1%; for `COc1ccc(OC2CCN(C(=O)C(C)Cn3cccn3)CC2)cc1` (stereo not drawn): -2.17%.
The same measure for `CC(=O)N1CCN(c2cc(C3CCNCC3)ccn2)CC1`: -1.18%; for `Cn1cc(C[C@H]2[C@@H](O)CCN2C(=O)c2ccc[nH]2)cn1`: -10.8%; for `CCC(=O)N1CCCC(C(=O)c2cnn(-c3ccc(F)cc3)c2N)C1` (stereo not drawn): -0.996%.
As for `Cc1nc[nH]c1CN(Cc1ccc(F)cc1)C1CC(C)(C)NC(C)(C)C1`, the cytotoxicity at 70.5 h was -2.59%.
The result for `c1nc(CCC2CCCN2)cc(N2CCCOCC2)n1` (stereo not drawn) reads 9.03%; that for `COC(=O)c1cc2c(=O)n(C3CC3)ccc2nc1C`, 2.32%; that for `c1cnn(CC2CN(Cc3ccc(-n4ccnc4)cc3)CCO2)c1` (stereo not drawn), 12.9%.
On to `COc1ccc(NC(=O)N2CCC(CSC)C2)cc1C` (stereo not drawn), for which the cytotoxicity at 70.5 h worked out at 2.45%.
Turning to `CN(CCCC#N)C1CCCN(Cc2noc(C3CC3)n2)C1` (stereo not drawn), the cytotoxicity at 70.5 h was 9.15%.
On to `Cc1ncsc1C(=O)NC1CCN(CCCC#N)CC1`, for which the cytotoxicity at 70.5 h is -1.22%.
In the case of `NC(=O)C(Nc1cccc(CO)c1)c1ccc(Br)cc1` (stereo not drawn), the cytotoxicity at 70.5 h stood at 6.7%.
For the compound `CN(C)CC1CN(Cc2c(Cl)ccc3cccnc23)CCO1` (stereo not drawn), the cytotoxicity at 70.5 h was -4.72%.
The same measure for `CC(C)N(C(=O)N1CCn2cncc2C1)C(C)C`: 1.59%.
As for `CCc1c(O)nc(SCC(=O)N(CC)CC)n(C(C)CC)c1=O` (stereo not drawn), the cytotoxicity at 70.5 h is -0.0297%.
As for `CS(=O)(=O)N1CCCn2nc(CNc3cc(C#N)ccn3)cc2C1`, the cytotoxicity at 70.5 h is -6.16%.
For the compound `O=C(NCc1ccoc1)c1ccc(C2CCCN2CC2CCOCC2)s1` (stereo not drawn), the cytotoxicity at 70.5 h was found to be 38.9%.
In the case of `CC1c2cccn2CCN1S(=O)(=O)N1CCCCCC1` (stereo not drawn), the cytotoxicity at 70.5 h is -14.2%.
Regarding `C[C@@H]1CN(C(=O)CCc2nncn2C)C[C@@]1(O)C1CCC1`, the cytotoxicity at 70.5 h is -2.96%.
The result for `Cc1nnc([C@]23COC[C@H]2CN(Cc2nccs2)C3)o1` reads -10.3%; that for `Cc1cc(Nc2nc(C)cs2)nc(C2CCCCN2CCO)n1` (stereo not drawn), 32.4%; that for `COCC(C)NS(=O)(=O)c1ccc(Br)cn1` (stereo not drawn), -11.1%.
For `COCCN1CCC(CNC(=O)C2(c3cc(C)cc(C)c3)CC2)CC1`, the cytotoxicity at 70.5 h was -1.48%.
Regarding `COc1ccnc(N2C[C@@H]3CC[C@H](C2)N(CC2CCC2)C3=O)n1`, the cytotoxicity at 70.5 h was -0.827%.
The same measure for `O=S(=O)(N1CCCC1)N1CC(c2ccnc(Nc3ccccn3)n2)C1`: 8.07%; for `CCc1nnc(SCc2nonc2C)n1C1CC1`: -10.7%; for `Cc1ccc(N2CCOCC3(CCCN(c4ncc(F)cn4)C3)C2)nn1` (stereo not drawn): -3.89%.
Consider `Cn1ccc(CN2CCCC23CCN(Cc2ccccc2F)CC3)n1`, for which the cytotoxicity at 70.5 h is -4.06%.
On to `O=C(NCCNc1ncccn1)c1scnc1Cl`, for which the cytotoxicity at 70.5 h worked out at 9.91%.
`Cc1ocnc1C(=O)N1CCN(Cc2ccccc2)[C@@H]2CS(=O)(=O)C[C@@H]21`: the cytotoxicity at 70.5 h was -9.03%.
For the compound `CN(C)c1cccc(C(=O)Nc2cnn(Cc3ccccn3)c2)c1`, the cytotoxicity at 70.5 h was -9.4%.
Take `Cc1ccccc1C1(C(=O)NCCN2CCCCC2C)CCOCC1` (stereo not drawn): the cytotoxicity at 70.5 h is -6.68%.
`CCN1CCN(C(=O)c2cccc(CN3CCOCC3)c2)CC1`: the cytotoxicity at 70.5 h is -5.52%.
The result for `Cc1cc(C(=O)N2C[C@H](CO)C[C@H](CN3CCOCC3)C2)nc(C)n1` reads -7.67%; that for `Cc1occc1C(=O)N1CCCS1(=O)=O`, -12%.
The same measure for `OCC(O)CSCc1cc(Cl)ccc1Cl` (stereo not drawn): -3.91%; for `O=C(NCCc1coc(-c2ccccc2)n1)NC1CC1`: 20.2%; for `Fc1ccc(-c2noc([C@@H]3Cc4nc[nH]c4CN3)n2)cc1`: -11.7%.
Consider `CS(=O)(=O)N1CCC(c2nnc3ccc(C(=O)N4CCCC4)cn23)C1` (stereo not drawn), for which the cytotoxicity at 70.5 h is -5.09%.
Regarding `COc1cc(N2C[C@H]3CN(CC(=O)N(C)C)C(=O)[C@H]3C2)ncn1`, the cytotoxicity at 70.5 h was 28.2%.
The same measure for `O=C(C[S+]([O-])Cc1c(Cl)cccc1Cl)N1CCc2sccc2C1` (stereo not drawn): -7.37%; for `Cc1cc(C(=O)NS(=O)(=O)Cc2ccon2)c(C)n1C(C)C`: -4.61%; for `Cc1ncccc1C(=O)Nc1ccc2ccn(CCN(C)C)c2c1`: -4.81%.
Turning to `Cn1cc(C(=O)N2CCC(c3cc(CCO)n(C)n3)C2)cn1` (stereo not drawn), the cytotoxicity at 70.5 h is -4.36%.
The same measure for `CNC(=O)C1(C)CN(S(=O)(=O)c2cccc(OC)c2)CCO1` (stereo not drawn): 22.5%; for `CCC(CC)(CNC(=O)NC1CCCC1(C)C)S(C)(=O)=O` (stereo not drawn): -7.23%.
The result for `CCOc1ccnc(N2CCN(CCOC)CC2)n1` reads -5.63%; that for `Cc1ccccc1C(=O)NCc1ccc(N2CCNC(=O)C2)cc1`, -10.2%; that for `CNC(=O)NC(=O)CN1CCC(c2c[nH]c3ccc(OC)cc23)CC1`, -5.75%.
Take `CC(COc1ccccc1)NCc1nc(-c2cccnc2)no1` (stereo not drawn): the cytotoxicity at 70.5 h was -1.13%.
For `COCCn1nc(C(=O)N(C)Cc2cccnc2)ccc1=O`, the cytotoxicity at 70.5 h turned out to be 4.23%.
Take `CC(Cn1cncn1)NCc1nncn1C1CCCCC1` (stereo not drawn): the cytotoxicity at 70.5 h was -1.66%.
Turning to `Cc1oncc1C(=O)N1CC[C@@H]2[C@@H]1CC(=O)N2Cc1cccnc1`, the cytotoxicity at 70.5 h was -5.14%.
In the case of `c1csc(CN2CCCn3cnc(COCC4CC4)c3C2)n1`, the cytotoxicity at 70.5 h is -0.793%.
For `Cc1ccc(-c2nc(CN3CCc4nn(C)c(=O)cc4C3)no2)cc1`, the cytotoxicity at 70.5 h was -15.2%.
With `COc1ccc2c(c1)OCC(CNC(=O)c1cc[nH]c1C)C2` (stereo not drawn), the cytotoxicity at 70.5 h was -19.4%.
Consider `CCN1CC(O)CN(C(=O)c2cccc(C(F)(F)F)c2)CC1=O` (stereo not drawn), for which the cytotoxicity at 70.5 h was -4.06%.
With `CC(C)N1CCO[C@H]2CN(C(=O)c3ccncc3F)C[C@H]21`, the cytotoxicity at 70.5 h is -4.09%.
As to `c1ccc(NCc2cn3c(n2)CN(Cc2ccoc2)CC3)nc1`, the cytotoxicity at 70.5 h is -0.75%.
With `Cc1cc(C)n(CC2CN(Cc3nc(-c4ccoc4)no3)CCO2)n1` (stereo not drawn), the cytotoxicity at 70.5 h is -15.7%.
For the compound `COC(=O)Cn1c(C)cc(=O)c2cc(F)ccc21`, the cytotoxicity at 70.5 h was -4.13%.
With `O=C(Cc1cccs1)N1C[C@H]2CN(CC3CCCO3)CC[C@H]2C1` (stereo partly drawn), the cytotoxicity at 70.5 h is -6.25%.
On to `COc1cccc(-c2noc(C3CCN(Cc4ccccc4F)C3)n2)c1` (stereo not drawn), for which the cytotoxicity at 70.5 h was found to be 38.2%.
As to `C[C@H]1CN(C(=O)c2cccc(F)c2Cl)CCN1S(C)(=O)=O`, the cytotoxicity at 70.5 h is -95.8%.
As for `O=C1CC2(CCN(Cc3cccnc3)C2)CN1c1cccc(F)c1` (stereo not drawn), the cytotoxicity at 70.5 h was -16.5%.
The same measure for `c1ccc(CN2C[C@@H]3COC[C@]3(COCC3CCOCC3)C2)nc1`: 1.04%; for `Cc1n[nH]c(SCC(=O)N[C@@H](C)C(N)=O)n1`: 0.227%.
With `COCCN1CCCC2(CCN(c3cccc(C(F)(F)F)n3)C2)C1=O` (stereo not drawn), the cytotoxicity at 70.5 h was -9.08%.
As for `Cc1ccc(C(=O)N2CCO[C@H]3[C@@H](OCc4ccccn4)CC[C@@H]32)o1`, the cytotoxicity at 70.5 h was -19.5%.
The same measure for `CC(CNC(=O)c1ccon1)Oc1cccc(Br)c1` (stereo not drawn): 4.03%; for `Cc1cc(C2CCCN2CCC(=O)N2CCc3sccc3C2)no1` (stereo not drawn): 1.59%; for `Cc1nc(CN2CCCC(Cn3cc(CCO)nn3)C2)c2ccccn12` (stereo not drawn): -5.43%.
As to `CCc1ccccc1-c1cc(C)nc(N)n1`, the cytotoxicity at 70.5 h was -7.75%.
As to `Cc1cc(C)n(CCCN(C)c2cc(C3CC3)ncn2)n1`, the cytotoxicity at 70.5 h was -7.51%.
Consider `Cc1ccc(NC(=O)NCC(c2cnn(C)c2)N(C)C)c(C)c1` (stereo not drawn), for which the cytotoxicity at 70.5 h was -11%.
As to `CCn1cncc1CN1CCc2nc3sccc3c(=O)n2CC1`, the cytotoxicity at 70.5 h is -5.29%.
Take `O=C(NCCCOC1CCCCC1)C1NCCc2[nH]cnc21` (stereo not drawn): the cytotoxicity at 70.5 h was -3.08%.
For the compound `NC(=O)CN(Cc1cccc(Oc2ccccc2)c1)C(=O)C1CC1`, the cytotoxicity at 70.5 h was -4.97%.
Regarding `CCN1CC(CN(C)c2cc(C)nc(N)n2)Oc2ccccc21` (stereo not drawn), the cytotoxicity at 70.5 h was 17.6%.
As for `CCn1nc(C)cc1C(=O)N1C[C@@H]2C[C@@H](c3nc(C)cs3)O[C@@H]2C1`, the cytotoxicity at 70.5 h was -2.46%.
Consider `Cc1ccc(C2CCCN2Cc2nc3c(cnn3C)c(=O)[nH]2)cc1C` (stereo not drawn), for which the cytotoxicity at 70.5 h is -15.6%.
In the case of `C1CC(CN2CCO[C@H]3[C@H](OCC4CC4)CC[C@@H]32)CCO1`, the cytotoxicity at 70.5 h is -2.31%.
The same measure for `CC(C)CN1CCCC1c1ccc(C(=O)Nc2cn(C)nn2)s1` (stereo not drawn): -0.657%; for `CN1CCN(C(=O)[C@H]2C[C@H]3[C@H](CCN3Cc3nccs3)O2)CC1`: -10.8%; for `Cc1ccc(CN2CCO[C@@H]3[C@@H](OCc4cccnc4)CC[C@@H]32)o1`: -4.63%.
Turning to `CCc1nccn1C1CCCN(C(=O)Cc2cn3ccccc3n2)C1` (stereo not drawn), the cytotoxicity at 70.5 h was -3.88%.
The same measure for `CNC(=O)c1ccc(C2CN(CC(=O)N(C)C)CCO2)nc1` (stereo not drawn): -5.57%.
The result for `CC(=O)c1cccc(OCCCC(=O)N(C)C2CCN(C)CC2)c1` reads -7.34%; that for `CCCOc1cc(CNC(=O)Nc2ccc(C)cc2)ccn1`, -2.77%; that for `O=C(c1ccccc1)N1C[C@@H]2CC[C@H](C1)N(S(=O)(=O)c1cccnc1)C2`, -7.07%.
